How the values were obtained:
human mAChR M1 [1] = biological target: T1, human mAChR M1 (Homo sapiens, UniProt P11229); test: mAChR M1 cell-based functional assay (calcium mobilization), agonist mode: compound alone, Emax relative to acetylcholine maximum; conditions: for EC50 / Agonist Activity Human M1 EC50: human mAChR M1; for Emax: relative to the maximum for acetylcholine
T1 sequence (P11229 1-460): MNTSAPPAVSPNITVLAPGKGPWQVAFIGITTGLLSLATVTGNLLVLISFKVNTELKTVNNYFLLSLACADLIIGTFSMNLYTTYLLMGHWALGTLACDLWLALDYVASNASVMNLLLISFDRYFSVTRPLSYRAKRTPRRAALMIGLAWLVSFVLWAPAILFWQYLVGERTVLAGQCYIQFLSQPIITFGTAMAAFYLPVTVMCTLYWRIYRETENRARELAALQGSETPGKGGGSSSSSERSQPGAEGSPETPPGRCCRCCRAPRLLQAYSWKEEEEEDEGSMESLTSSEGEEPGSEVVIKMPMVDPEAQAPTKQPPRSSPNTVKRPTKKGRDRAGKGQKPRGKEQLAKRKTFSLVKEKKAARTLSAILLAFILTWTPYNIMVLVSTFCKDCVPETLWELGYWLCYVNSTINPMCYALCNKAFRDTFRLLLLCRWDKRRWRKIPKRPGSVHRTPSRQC
Procedure, shortened: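 Agonist activity is the concentration-dependent rise in intracellular calcium (Fluo-4, 1 Hz read) after compound addition, measured before any acetylcholine was added, in stable hM1 CHO-K1 cells. Curves were 11-point, 1:3 dilutions fitted by four-parameter logistic. Emax is given as a fraction of maximal acetylcholine response.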

human mAChR M1 [2] = biological target: T1, human mAChR M1; test: mAChR M1 cell-based functional assay (calcium mobilization), PAM mode: increase in the EC20 acetylcholine response
Procedure, shortened: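 PAM readout is the concentration-dependent rise in the EC20 acetylcholine calcium signal, fitted to a four-parameter logistic (EC50, Emax). Compounds were preincubated from 4 s before ACh at 144 s (EC20) and 230 s (EC80). hM1-expressing CHO-K1 cells loaded with Fluo-4, FDSS ratio read.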

Structure (SMILES) | EC50 (human mAChR M1 [1]) [µM] | Emax (human mAChR M1 [1]) [%] | EC50 (human mAChR M1 [2]) [µM] | Emax (human mAChR M1 [2]) [%] | Agonist Activity Human M1 EC50 (human mAChR M1 [1])
[2H]C([2H])([2H])Oc1ccc(-c2cc(F)c(CN3C(=O)c4cccnc4C3([2H])[2H])c(F)c2)c2cn(C([2H])([2H])[2H])nc12 [Compound 94, 6-(2,6-difluoro-4-(7-(methoxy-d3)-2-(methyl-d3)-2H-indazol-4-yl)benzyl)-6,7-dihydro-5H-pyrrolo[3,4-b]pyridin-5-one-7,7-d2] | 3.54 | 19 | 0.139 | 76 | –
[2H]C([2H])([2H])Oc1ccc(-c2ccc(CN3C(=O)c4cccnc4C3([2H])[2H])c(F)c2)c2cn(C)nc12 [Compound 107, 6-(2-fluoro-4-(7-(methoxy-d3)-2-methyl-2H-indazol-4-yl)benzyl)-6,7-dihydro-5H-pyrrolo[3,4-b]pyridin-5-one-7,7-d2] | 5.46 | 16 | 0.227 | 74 | –
[2H]C1([2H])c2ncccc2C(=O)N1Cc1c(F)cc(-c2ccnc3nn(C)cc23)cc1C1CC1 [Compound 208, 6-(2-cyclopropyl-6-fluoro-4-(2-methyl-2H-pyrazolo[3,4-b]pyridin-4-yl)benzyl)-6,7-dihydro-5H-pyrrolo[3,4-b]pyridin-5-one-7,7-d2] | 1.2 | 59 | 0.14 | 88 | –
[2H]C1([2H])c2ncccc2C(=O)N1Cc1ccc(-c2ccc(OCC3CCO3)c3nn(C)cc23)cc1F (stereo not shown) [Compound 145, 6-(2-fluoro-4-(2-methyl-7-(oxetan-2-ylmethoxy)-2H-indazol-4-yl)benzyl)-6,7-dihydro-5H-pyrrolo[3,4-b]pyridin-5-one-7,7-d2] | ≥ 10 | 16 | 1.07 | 73 | –
[2H]C1([2H])c2ncccc2C(=O)N1Cc1c(F)cc(-c2cn(C)c(=O)c3c2cnn3C([2H])([2H])[2H])cc1F [Compound 92, 4-(3,5-difluoro-4-((5-oxo-5,7-dihydro-6H-pyrrolo[3,4-b]pyridin-6-yl-7,7-d2)methyl)phenyl)-6-methyl-1-(methyl-d3)-1,6-dihydro-7H-pyrazolo[3,4-c]pyridin-7-one] | – | 2 | 2.4 | 54 | Inactive
[2H]C1([2H])c2ncccc2C(=O)N1Cc1c(F)cc(-c2cccc3c2cnn3C([2H])([2H])[2H])cc1F [Compound 67, 6-(2,6-difluoro-4-(1-(methyl-d3)-1H-indazol-4-yl)benzyl)-6,7-dihydro-5H-pyrrolo[3,4-b]pyridin-5-one-7,7-d2] | – | 2 | 0.823 | 71 | Inactive
[2H]C1([2H])c2ncccc2C(=O)N1Cc1c(F)cc(-c2ccc3nn(C([2H])([2H])[2H])cc3c2)cc1F [Compound 100, 6-(2,6-difluoro-4-(2-(methyl-d3)-2H-indazol-5-yl)benzyl)-6,7-dihydro-5H-pyrrolo[3,4-b]pyridin-5-one-7,7-d2] | – | 6 | 0.214 | 85 | Inactive
[2H]C1([2H])c2ncccc2C(=O)N1Cc1ccc(-c2cc(F)cc3nn(C)cc23)cc1F [Compound 71, 6-(2-fluoro-4-(6-fluoro-2-methyl-2H-indazol-4-yl)benzyl)-6,7-dihydro-5H-pyrrolo[3,4-b]pyridin-5-one-7,7-d2] | – | 1 | 0.698 | 75 | Inactive
[2H]C1([2H])c2ncccc2C(=O)N1Cc1ccc(-c2ccc(C)c3nn(C([2H])([2H])[2H])cc23)cc1F [Compound 56, 6-(2-fluoro-4-(7-methyl-2-(methyl-d3)-2H-indazol-4-yl)benzyl)-6,7-dihydro-5H-pyrrolo[3,4-b]pyridin-5-one-7,7-d2] | – | 5 | 0.317 | 87 | Inactive
[2H]C1([2H])c2ncccc2C(=O)N1Cc1c(F)cc(-c2ccc(OC3CC3)c3nn(C([2H])([2H])[2H])cc23)cc1F [Compound 183, 6-(4-(7-cyclopropoxy-2-(methyl-d3)-2H-indazol-4-yl)-2,6-difluorobenzyl)-6,7-dihydro-5H-pyrrolo[3,4-b]pyridin-5-one-7,7-d2] | ≥ 10 | 13 | 0.535 | 86 | –
[2H]C1([2H])c2ncccc2C(=O)N1Cc1c(F)cc(-c2c(F)ccc3nn(C)cc23)cc1F [Compound 37, 6-(2,6-difluoro-4-(5-fluoro-2-methyl-2H-indazol-4-yl)benzyl)-6,7-dihydro-5H-pyrrolo[3,4-b]pyridin-5-one-7,7-d2] | – | 3 | 2.3 | 64 | Inactive
[2H]C1([2H])c2ncccc2C(=O)N1Cc1ccc(-c2ccc3nn(C)cc3c2)cc1 [Compound 12, 6-(4-(2-methyl-2H-indazol-5-yl)benzyl)-6,7-dihydro-5H-pyrrolo[3,4-b]pyridin-5-one-7,7-d2] | – | 2 | 1.23 | 62 | Inactive
[2H]C1([2H])c2ncccc2C(=O)N1Cc1c(C)cc(-c2ccc3nn(C)cc3c2)cc1F [Compound 194, 6-(2-fluoro-6-methyl-4-(2-methyl-2H-indazol-5-yl)benzyl)-6,7-dihydro-5H-pyrrolo[3,4-b]pyridin-5-one-7,7-d2] | 3.55 | 18 | 0.437 | 83 | –
[2H]C1([2H])c2ncccc2C(=O)N1Cc1ccc(-c2cncc3nn(C)cc23)cc1F [Compound 120, 6-(2-fluoro-4-(2-methyl-2H-pyrazolo[3,4-c]pyridin-4-yl)benzyl)-6,7-dihydro-5H-pyrrolo[3,4-b]pyridin-5-one-7,7-d2] | – | 2 | 2.82 | 66 | Inactive
[2H]C1([2H])c2ncccc2C(=O)N1Cc1c(F)cc(-c2ccc3nn(C)cc3c2)cc1OCC(C)C [Compound 211, 6-(2-fluoro-6-isobutoxy-4-(2-methyl-2H-indazol-5-yl)benzyl)-6,7-dihydro-5H-pyrrolo[3,4-b]pyridin-5-one-7,7-d2] | – | 3 | 1.29 | 88 | Inactive
[2H]C1([2H])c2ncccc2C(=O)N1Cc1c(F)cc(-c2ccc(OCCOC3CC3)c3nn(C)cc23)cc1F [Compound 150, 6-(4-(7-(2-cyclopropoxyethoxy)-2-methyl-2H-indazol-4-yl)-2,6-difluorobenzyl)-6,7-dihydro-5H-pyrrolo[3,4-b]pyridin-5-one-7,7-d2] | ≥ 10 | 22 | 0.777 | 80 | –
[2H]C1([2H])c2ncccc2C(=O)N1Cc1c(F)cc(-c2ccc(O[C@H]3CCOC3)c3nn(C)cc23)cc1F [Compound 136, (S)-6-(2,6-difluoro-4-(2-methyl-7-((tetrahydrofuran-3-yl)oxy)-2H-indazol-4-yl)benzyl)-6,7-dihydro-5H-pyrrolo[3,4-b]pyridin-5-one-7,7-d2] | 8.42 | 28 | 0.245 | 74 | –
[2H]C1([2H])c2ncccc2C(=O)N1Cc1ccc(-c2ccc3c(cnn3C)c2)cc1 [Compound 237, 6-(4-(1-methyl-1H-indazol-5-yl)benzyl)-6,7-dihydro-5H-pyrrolo[3,4-b]pyridin-5-one-7,7-d2] | – | 2 | > 10 | 47 | Inactive
[2H]C1([2H])c2ncccc2C(=O)N1Cc1ccc(-c2cccc3nncn23)cc1 [Compound 239, 6-(4-([1,2,4]triazolo[4,3-a]pyridin-5-yl)benzyl)-6,7-dihydro-5H-pyrrolo[3,4-b]pyridin-5-one-7,7-d2] | – | 3 | > 10 | 44 | Inactive
[2H]C1([2H])c2ncccc2C(=O)N1Cc1ccc(-c2cc3cn(C)nc3cc2F)cc1F [Compound 24, 6-(2-fluoro-4-(6-fluoro-2-methyl-2H-indazol-5-yl)benzyl)-6,7-dihydro-5H-pyrrolo[3,4-b]pyridin-5-one-7,7-d2] | – | 2 | 3.6 | 69 | Inactive
[2H]C1([2H])c2ncccc2C(=O)N1Cc1ccc(-c2ccc3cn(C)nc3c2)cc1 [Compound 14, 6-(4-(2-methyl-2H-indazol-6-yl)benzyl)-6,7-dihydro-5H-pyrrolo[3,4-b]pyridin-5-one-7,7-d2] | – | 2 | 6.8 | 77 | Inactive
[2H]C1([2H])c2ncccc2C(=O)N1Cc1c(F)cc(-c2ccc(C)c3nn(C)cc23)cc1Cl [Compound 162, 6-(2-chloro-4-(2,7-dimethyl-2H-indazol-4-yl)-6-fluorobenzyl)-6,7-dihydro-5H-pyrrolo[3,4-b]pyridin-5-one-7,7-d2] | – | 2 | 0.435 | 81 | Inactive

Source: patent US20240228489A1, “POSITIVE ALLOSTERIC MODULATORS OF THE MUSCARINIC ACETYLCHOLINE RECEPTOR M1” (Vanderbilt University, priority 2021, published 2024)
